According to US20040132648A1, “Remedies and/or preventives for conformational diseases” (priority 2001, published 2004):
Read-outs that look alike come from different tables or passages of the source.

What was measured:
PC12 cells [1] = test: Cell death by β-amyloid monitored by lactate dehydrogenase release; type: cell-based, rat; settings: for cell death by β-amyloid vs control group: 48 hours, FIG. 3
PC12 cells [2] = test: Neuroprotective action against β-amyloid, viable cell count / survival rate by WST-8 method; type: cell-based, rat; design: key to Neuroprotective action: +, P < 0.05 when compared with the no neuropeptide-added group; settings: for Neuroprotective action: amyloid (50 μM), cell survival rate vs no peptide; for neuroprotective action against cell death by β-amyloid (cell survival rate): co-existing with β-amyloid, PACAP27 10^−9 M; for relationship between concentration and neuroprotective action against β-amyloid: neuropeptides at various concentrations
Protocol: An experiment was performed similarly to Example 5, and then the neuroprotective action against cell death by β-amyloid of the following PACAP-related neuropeptides (peptides 1, 2, 4, 5, 7, 8, 15, 16, 17, 19, 21, 26, 27, 28, 29, 30, 31, 32, 33, 34, 35, 36, 37, 38 and 39) and VIP-related neuropeptides (peptides 3, 9, 10, 11, 12, 13, 14, 18, 20, 22, 23, 24 and 25) was confirmed. Specifically, amyloid (50 μM) and each of the various PACAP-related neuropeptides and VIP-related neuropeptides were added to the cultured PC12 cells. The number of […] calculated by the WST-8 method, so that comparison and examination was performed for the neuroprotective action of these various peptides against amyloid. If the neuropeptides had neuroprotective action, a clear difference in viable cell count can be observed between cases in which neuropeptides were added and cases in which neuropeptides were not added. In PC12 cells added with each of the various neuropeptides, a case wherein a higher cell survival rate (P<0.05) was observed compared with groups in which neuropeptides had not been added, was determined as having neuroprotective action. The results are shown in Table 1 and Table 2. β-amyloid was added to PC12 cells that had been cultured similarly to Example 5. At this time, neuropeptides PACAP27, VIP and humanin, and a cell-permeable cAMP derivative were allowed to respectively co-exist, so that the effect of these neuropeptides against cell death by β-amyloid was confirmed. Cell death was examined by evaluating cell count using the WST-8 method, and then by calculating cell survival rate. […] In the presence of β-amyloid, approximately 70% of the cells died. […] The neuroprotective action of humanin, a recently found human-derived neuroprotective substance (Proc Natl Acad Sci USA (2001) 98 (11) 6336-6341), was also examined. […] At this time, neuropeptides at various concentrations were allowed to co-exist, so that the relationship between the neuroprotective action and the concentration was investigated. Cells were calculated by the WST-8 method, and then the extent to which cell death by β-amyloid could be attenuated was expressed numerically.

caspase-3 = test: Caspase-3 activating action of β-amyloid and its suppression (Ac-DEVD-AMC substrate); type: cell-based, rat; settings: FIG. 7
Protocol: PC12 cells that had been cultured almost similarly to Example 4 were cultured in a 24-well plate (2×10^5 cells/well). 10^−5 M β-amyloid was added to the plate. At this time, cAMP derivative (10^−4 M) and neuropeptide PACAP (10^−9 M) were added respectively, and then the action of activating caspase-3, an apoptosis-related enzyme, was examined. The caspase-3 activating action was examined using Ac-DEVD-AMC, a caspase-3 specific substrate. […] Further, by the addition of neuropeptide PACAP, an incomplete, approximately 50% suppressive effect was shown. […] Taking into consideration that this suppressive action is not complete, other action mechanisms may also be involved.

PC12 cells [3] = type: cell-based, rat
PC12 cells [4] = tested on: PC12 cells

## PACAP27 (H-HSDGIFTDSYSRYRKQMAVKKYLAAVL-NH2; ends and bridges not checked) [Peptide 2]
PC12 cells [1]; β-amyloid 10^−5M, PACAP27 10^−9M, over time, 0.2 μM insulin-containing serum-free DMEM, FIG. 4
  neuroprotective action against cell death by β-amyloid (lactate dehydrogenase released into media): cell death was very strongly suppressed
PC12 cells [2]; PACAP-related neuropeptide 10^−9 M
  Neuroprotective action: +
PC12 cells [2]; FIG. 5
  neuroprotective action against cell death by β-amyloid (cell survival rate): distinctly strong neuroprotective action

## β-amyloid 1-42
PC12 cells [1]; 0.2 μM insulin-containing serum-free DMEM
  cell death by β-amyloid vs control group: significant cell death
PC12 cells [1]; 0.25% horse serum and 0.25% newborn calf serum-containing DMEM
  cell death by β-amyloid vs control group: significant cell death
PC12 cells [1]; 5% horse serum and 5% newborn calf serum-containing DMEM
  cell death by β-amyloid vs control group: no cell death
PC12 cells [2]; β-amyloid alone, WST-8, FIG. 5
  cells died in the presence of β-amyloid: approximately 70%
caspase-3; addition of 10^−5 M β-amyloid
  activity of caspase-3: improved

## VIP (HSDAVFTDNYTRLRKQMAVKKYLNSILN) [Peptide 3]
PC12 cells [3]
  degree of neuroprotective action against abnormal prion (106-126): showed neuroprotective action at concentrations higher than that of PACAP
PC12 cells [2]; VIP-related neuropeptide 10^−7 M
  Neuroprotective action: +
PC12 cells [2]; FIG. 5
  neuroprotective action against cell death by β-amyloid (cell survival rate): showed neuroprotective action against β-amyloid although the effect was weaker than that of PACAP27
PC12 cells [2]; β-amyloid, FIG. 6
  relationship between concentration and neuroprotective action against β-amyloid: showed strong neuroprotective action at relatively high concentrations

## Prion (106-126)
PC12 cells [4]
  cell death (lactate dehydrogenase released to the medium): cell death occurs depending on the concentration

## CCCC(=O)Nc1ncnc2c1ncn2[C@@H]1O[C@@H]2COP(=O)(O)O[C@H]2[C@H]1OC(=O)CCC [dibutyryl-cAMP, reference compound]
PC12 cells [2]; FIG. 5
  neuroprotective action against cell death by β-amyloid (cell survival rate): cell death was very strongly suppressed
caspase-3; 10^−5 M β-amyloid, cAMP derivative 10^−4 M
  effect on caspase-3 activation by β-amyloid: significantly attenuated

## Pituitary Adenylate Cyclase Activating Polypeptide [PACAP]
PC12 cells [3]; 50 μM abnormal prion (106-126), neuropeptides at various concentrations, FIG. 2
  degree of neuroprotective action against abnormal prion (106-126): even at an extremely low concentrations, PACAP showed a certain degree of neuroprotective action
PC12 cells [2]; β-amyloid, FIG. 6
  neuroprotective action relative to that of VIP: at least 1×10^4 fold
  relationship between concentration and neuroprotective action against β-amyloid: showed neuroprotective action even at an extremely low concentration
PC12 cells [2]; β-amyloid, various concentrations, FIG. 6
  concentration at which the neuroprotective effect was strongest: 10^−9 to 10^−13 M
caspase-3; 10^−5 M β-amyloid, PACAP 10^−9 M
  suppressive effect on caspase-3 activation by β-amyloid: approximately 50%
